From publication PMC8843131, “Inhibition studies of bacterial α-carbonic anhydrases with phenols” (Journal of Enzyme Inhibition and Medicinal Chemistry, 2022)
Where two headings read alike, the source gives them in different places.

Legend:
NgCAα = biological target: T1, NgCAα (Neisseria gonorrhoeae, UniProt Q50940); assay: stopped-flow CO2 hydrase assay; assay type: biochemical
T1 construct: gene cah; recombinant, obtained in-house as described earlier
T1 sequence (Q50940 27-252): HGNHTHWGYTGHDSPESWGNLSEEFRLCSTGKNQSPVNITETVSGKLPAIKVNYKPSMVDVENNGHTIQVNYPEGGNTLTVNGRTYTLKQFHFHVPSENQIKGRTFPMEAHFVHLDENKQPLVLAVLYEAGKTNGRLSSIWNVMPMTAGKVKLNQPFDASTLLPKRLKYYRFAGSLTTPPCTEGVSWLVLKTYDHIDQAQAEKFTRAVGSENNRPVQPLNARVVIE

VchCAα = biological target: T2, VchCAα (Vibrio cholerae, UniProt Q9KMP6); assay: stopped-flow CO2 hydrase assay; assay type: biochemical; conditions: read-out: KI (μM)^a / VchCAα; CO2 substrate 1.7-17 mM, 10 mM HEPES pH 7.4, 10 mM NaClO4, 15 min preincubation
T2 construct: gene VC_A0274
T2 sequence (Q9KMP6 21-239 limits assumed): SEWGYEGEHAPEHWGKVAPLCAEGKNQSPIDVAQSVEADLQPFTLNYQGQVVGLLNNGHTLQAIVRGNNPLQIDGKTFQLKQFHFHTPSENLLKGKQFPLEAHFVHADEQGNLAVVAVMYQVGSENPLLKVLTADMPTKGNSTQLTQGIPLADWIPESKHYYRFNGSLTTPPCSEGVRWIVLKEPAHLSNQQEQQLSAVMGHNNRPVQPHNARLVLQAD

Row | SMILES | Ki (NgCAα) | Ki (VchCAα) | Ki (NgCAα; CO2 substrate 1.7-17 mM, 10 mM HEPES pH 7.4, 10 mM NaClO4, 15 min preincubation)
1 | Oc1ccccc1 [compound 1, phenol] | 0.9 µM | 0.8 µM | 
2 | Oc1ccccc1O [compound 2, 2] | 5.3 µM | 20.3 µM | 
3 | Oc1cccc(O)c1 [compound 3, 3] | 2.2 µM | 8.6 µM | 
4 | Oc1ccc(O)cc1 [compound 4, 4] | 4.7 µM | 8.4 µM | 
5 | Oc1ccc(O)c(O)c1 [compound 5, 5] | 3.9 µM | 9.4 µM | 
6 | Nc1cccc(O)c1 [compound 6, 3-aminophenol] | 1.7 µM | 3.9 µM | 
7 | Nc1ccc(O)cc1 [compound 7, 7] | 6 µM | 10.6 µM | 
8 | CC(=O)Nc1ccc(O)cc1 [compound 8, paracetamol] | 1.5 µM | 7 µM | 
9 | N#Cc1ccc(O)cc1 [compound 9, 4-cyanophenol] |  | 17.2 µM | 24.2 µM
10 | O=C(O)c1ccccc1O [compound 10, salicylic acid] | 43.8 µM | 39.1 µM | 
11 | O=C(O)c1ccc(O)cc1 [compound 11, 4-hydroxy-benzoic acid] | 8.7 µM | 3.5 µM | 
12 | OCc1ccc(O)cc1 [compound 12, 4-hydroxy-benzylalcohol] | 0.6 µM | 1.2 µM | 
13 | Nc1cc(O)ccc1Cl [compound 13, 3-amino-4-chlorophenol] | 0.8 µM | 0.7 µM | 
14 | Nc1ccc(O)c(Cl)c1 [compound 14, 14] | 71.5 µM | 81.6 µM | 
15 | Oc1ccc(F)cc1F [compound 15, 15] | 35.9 µM | 36.6 µM | 
16 | Oc1cc(F)cc(F)c1 [compound 16, 3,5-difluorophenol] | 3.7 µM | 4.9 µM | 
17 | O=C(O)c1ccc(O)c(O)c1 [compound 18, 3,4-dihydroxybenzoic acid] | 9.3 µM | 13.8 µM | 
18 | O=C(O)c1c(O)cccc1O [compound 19, 19] | 33.1 µM | 49.6 µM | 
19 | O=C(O)c1cc(O)ccc1O [compound 20, 20] | 16.3 µM | 7.3 µM | 
20 | O=C(O)/C=C/c1ccc(O)cc1 [compound 21, 21] | 10 µM | 40.5 µM | 
21 | O=C(O)/C=C/c1ccc(O)c(O)c1 [compound 22, caffeic acid] | 76 µM | 78.1 µM | 
